Measured values as given in the supplement of paper PMC10331698.
± gives the standard deviation of the averaged measurements.

Experiments:
Experiment in all cases: level (log10 ratio to DMSO vehicle control); higher = higher biomarker level / cell amount than vehicle control
[1] = compound: C=C(C)C(=O)OCC(F)(F)C(F)(F)C(F)(F)F [2,2,3,3,4,4,4-Heptafluorobutyl methacrylate]; conditions: in DMSO
Experimental: (§1)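 BioMAP Diversity Plus panel of 12 human primary cell co-culture systems (3C, 4H, LPS, SAg, BT, BF4T, BE3C, CASM3C, HDF3CGF, KF3CT, MyoF, Mphg). Compounds were added 1 h before stimulation and left for 24 h (MyoF 48 h; BT 72 h for soluble read-outs or 6 d for IgG). Biomarkers were read by ELISA, cytotoxicity by SRB, PBMC viability and proliferation by Alamar Blue. Each well value was divided by the mean of 8 DMSO control wells on the same plate and log10 transformed; duplicate blinded samples were tested at 4 concentrations.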

Tetrafluorosuccinic acid = compound: O=C(O)C(F)(F)C(F)(F)C(=O)O [Tetrafluorosuccinic acid]; conditions: in DMSO
Experimental: as §1

[2] = compound: O=S(=O)(O)CCC(F)(F)C(F)(F)C(F)(F)C(F)(F)F [4:2 Fluorotelomer sulfonic acid]; conditions: in DMSO
Experimental: as §1

[3] = compound: O=S(=O)(OCC(F)(F)F)C(F)(F)C(F)(F)C(F)(F)C(F)(F)F [2,2,2-Trifluoroethyl perfluorobutanesulfonate]; conditions: in DMSO
Experimental: as §1

[4] = compound: OCC(F)(F)C(F)(F)C(F)(F)C(F)(F)C(F)(F)C(F)(F)C(F)(F)C(F)(F)CO [1H,1H,10H,10H-Perfluorodecane-1,10-diol]; conditions: in DMSO
Experimental: as §1

[5] = compound: OCC(F)(F)C(F)(F)C(F)(F)C(F)(F)C(F)(F)C(F)(F)F [6:1 Fluorotelomer alcohol]; conditions: in DMSO
Experimental: as §1

[6] = compound: OCCC(F)(F)C(F)(F)C(F)(F)C(F)(F)C(F)(F)C(F)(F)C(F)(F)C(F)(F)F [8:2 Fluorotelomer alcohol]; conditions: 6700 nM; in DMSO
Experimental: as §1

Test System | level (log10) ([1]; 6700 nM) | level (log10) ([1]; 20000 nM) | level (log10) ([1]; 60000 nM) | level (log10) (Tetrafluorosuccinic acid; 6700 nM) | level (log10) (Tetrafluorosuccinic acid; 20000 nM) | level (log10) (Tetrafluorosuccinic acid; 60000 nM) | level (log10) ([2]; 6700 nM) | level (log10) ([2]; 20000 nM) | level (log10) ([2]; 60000 nM) | level (log10) ([3]; 6700 nM) | level (log10) ([3]; 20000 nM) | level (log10) ([3]; 60000 nM) | level (log10) ([4]; 6700 nM) | level (log10) ([4]; 20000 nM) | level (log10) ([4]; 60000 nM) | level (log10) ([5]; 6700 nM) | level (log10) ([5]; 20000 nM) | level (log10) ([5]; 60000 nM) | level (log10) [6]
3C:CD142/Tissue Factor | -0.012 ± 0.021 | -0.017 ± 0.0014 | 0.001 ± 0.0099 | 0.001 ± 0.042 | 0.0025 ± 0.0064 | 0.006 ± 0.023 | -0.007 ± 0.044 | 0.0225 ± 0.011 | 0.024 ± 0.025 | 0.0285 ± 0.046 | 0.011 ± 0.037 | -0.018 ± 0.034 | -0.0585 ± 0.028 | -0.0685 ± 0.032 | -0.107 | -0.007 ± 0.0014 | 0.004 ± 0.014 | 0.0005 ± 0.026 | 0.0035 ± 0.14
HDF3CGF:CCL2/MCP-1 | 0.0055 ± 0.012 | -0.001 ± 0.0057 | -0.0115 ± 0.018 | -0.035 ± 0.0099 | -0.0415 ± 0.0064 | -0.0275 ± 0.012 | -0.008 ± 0.0071 | -0.009 ± 0.017 | 0.0105 ± 0.028 | -0.0125 ± 0.021 | 0.0255 ± 0.021 | -0.0205 ± 0.033 | -0.01 | -0.0565 ± 0.036 | -0.724 | -0.014 ± 0.028 | -0.013 ± 0.057 | -0.044 ± 0.082 | -0.0175 ± 0.032
CASM3C:CXCL9/MIG | -0.001 ± 0.011 | 0.005 ± 0.0099 | 0.0195 ± 0.0021 | -0.006 ± 0.0099 | -0.0135 ± 0.0021 | 0.014 ± 0.0085 | -0.04 ± 0.03 | -0.0225 ± 0.013 | 0.006 ± 0.033 | -0.0035 ± 0.026 | -0.014 ± 0.047 | -0.072 ± 0.09 | -0.001 | -0.0035 ± 0.005 | -0.039 | -0.003 ± 0.0014 | -0.0085 ± 0.0021 | -0.0305 ± 0.046 | 0.0025 ± 0.026
MyoF:Collagen III | 0.0075 ± 0.0021 | 0 ± 0.0014 | 0.0085 ± 0.0078 | -0.013 ± 0.016 | -0.0205 ± 0.005 | -0.016 ± 0.0099 | -0.013 ± 0.016 | -0.032 ± 0.0028 | -0.0045 ± 0.011 | -0.013 ± 0.0085 | -0.006 ± 0.016 | -0.0365 ± 0.005 | -0.0305 ± 0.0092 | -0.042 ± 0.0099 | -0.378 | -0.005 | -0.0015 ± 0.005 | 0.0105 ± 0.005 | -0.0205 ± 0.021
HDF3CGF:CD54/ICAM-1 | -0.008 ± 0.0071 | -0.013 ± 0.0071 | -0.007 ± 0.0099 | -0.0055 ± 0.03 | -0.006 ± 0.0071 | -0.0105 ± 0.016 | -0.013 ± 0.016 | -0.01 ± 0.017 | -0.0175 ± 0.013 | -0.0105 ± 0.018 | -0.0025 ± 0.022 | -0.0285 ± 0.028 | 0.002 ± 0.027 | 0.005 ± 0.0028 | -0.753 | -0.0075 ± 0.011 | 0.008 ± 0.02 | 0.0075 ± 0.011 | 0.0315 ± 0.035
CASM3C:Proliferation | -0.012 ± 0.027 | -0.0015 ± 0.0035 | 0.0215 ± 0.012 | 0.001 ± 0.0057 | -0.053 ± 0.016 | -0.0085 ± 0.06 | -0.012 ± 0.021 | -0.044 ± 0.0057 | 0 ± 0.031 | 0.0265 ± 0.0064 | -0.018 ± 0.027 | -0.026 ± 0.03 | -0.011 ± 0.021 | -0.0215 ± 0.00071 | -0.324 | 0.02 ± 0.037 | 0.0125 ± 0.0078 | -0.664 ± 0.24 | 0.003 ± 0.017
MyoF:TIMP-1 | 0.017 ± 0.028 | 0.0135 ± 0.025 | 0.0075 ± 0.0064 | -0.0045 ± 0.022 | -0.0215 ± 0.04 | -0.026 ± 0.069 | -0.0465 ± 0.069 | -0.0285 ± 0.047 | -0.0095 ± 0.036 | -0.0305 ± 0.042 | -0.0235 ± 0.011 | -0.056 ± 0.0099 | 0.03 ± 0.031 | 0.078 ± 0.04 | 0.052 | 0.0125 ± 0.025 | 0.0145 ± 0.019 | 0.03 ± 0.013 | -0.0435 ± 0.025
